Measurements published in patent US5846720A, “Methods of determining chemicals that modulate expression of genes associated with cardiovascular disease” (Oncogene Science, Inc., priority 1996, dated 1998).
pEC50: −log10 of the molar value. Where two headings read alike, the source gives them in different places.

Tests used:
G-CSF promoter = assay: G-CSF promoter/luciferase reporter assay (high-throughput screen I), G21 cells; conditions: for scored as positive in repeat assays (G-CSF): 48 independent luciferase assays, same day; for GCSF fold induction relative to solvent control: transcriptional activators
MMTV promoter = assay: MMTV promoter/luciferase reporter assay (high-throughput screen I, control for specificity), M10 cells; assay type: cell-based, mouse; conditions: for MMTV fold induction relative to solvent control: transcriptional activators, original high-throughput assay
Description: pMluci and pSV2Neo, an antibiotic resistance plasmid (84), were co-transfected into NIH/3T3 mouse fibroblast cells using the calcium phosphate precipitation method (85) with a commercially available kit (Pharmacia, Piscataway N.J.). Two days later, cells were transferred to media containing 0.4 mg/ml G418 and were grown for an additional 10-14 days. G418-resistant clones were isolated by standard methods. Once sufficient cell numbers were obtained, clones were analyzed based on several criteria: constitutive luciferase production, induction of luciferase expression by dexamethasone ([…], Sigma, St. Louis, Mo.), satisfactory attachment to microtiter plates used in the high-throughput screen (see section G) and acceptable standard deviation in multiple luciferase expression assays (see below for assay protocol). This analysis was carried out using the luciferase assay conditions described above. Of the clones which satisfied the above criteria for the high throughput screen, one clone, M10, was selected for use.

hGH promoter = assay: hGH promoter/luciferase reporter assay (high-throughput screen I), 532 cells; assay type: cell-based, rat; conditions: for hGH fold induction relative to solvent control: transcriptional activators
Description: 6. a GC rat pituitary cell line, transfected with the growth hormone reporter plasmid, designated 532, deposited under ATCC Accession No. CRL 10663.

[1] = Table 2, 6 h incubation, 360 min
[2] = transcriptional inhibitors, Table 2, 6 h incubation

SMILES | GCSF fold induction relative to solvent control (G-CSF promoter; Table 2, 6 h incubation) | MMTV fold induction relative to solvent control (MMTV promoter; Table 2, 6 h incubation) | hGH fold induction relative to solvent control (hGH promoter; Table 2, 6 h incubation) | GCSF fold inhibition relative to solvent control (G-CSF promoter; [2]) | MMTV fold inhibition relative to solvent control (MMTV promoter; [2]) | hGH fold inhibition relative to solvent control (hGH promoter; [2]) | also measured
CC(=O)n1ccnc1 [#58] |  |  |  |  |  |  | scored as positive in repeat assays (G-CSF) (G-CSF promoter): scored as positives in every single one of these assays
CN(C)c1ccc2cc3ccc(N(C)C)cc3nc2c1 [#80] |  |  |  |  |  |  | activation of the G-CSF promoter (dose response) (G-CSF promoter; G21 cells): specifically activated the G-CSF promoter; pEC50 (G-CSF promoter; read-out: ED50 (concentration of chemical resulting in 50% maximal stimulation), G-CSF reporter cell line G21, range over the three chemicals): 4.15 to 5.30
c1ccc(-c2cccc(-c3ccccn3)n2)nc1 [#453] |  |  |  |  |  |  | effect of replacing DMSO by methanol on MMTV activation (MMTV promoter; chemical dissolved in methanol): did not affect its ability to activate the MMTV promoter; MMTV fold induction relative to solvent control (MMTV promoter; [1]): 13.3 fold
CC(=O)N(C)c1ccc(N)cc1 [#1374] |  |  |  |  |  |  | scored as positive in repeat assays (G-CSF) (G-CSF promoter): scored as positives in every single one of these assays
O=NN(O)c1ccccc1 [#1783] |  |  |  |  |  |  | scored as positive in repeat assays (G-CSF) (G-CSF promoter): scored as positive only in half of the 48 repeat assays
CC(=O)c1c(C)cc(NC(C)(C)C)nc1NC(C)(C)C [Chemical 40] | 5.62 fold | 0.27 fold | 0.62 fold |  |  |  | 
CC(=O)c1ccc[nH]1 [Chemical 70] | 0.43 fold | 0.85 fold | 9.26 fold |  |  |  | 
CN(C)c1ccc2cc3ccc(N(C)C)cc3nc2c1 [Chemical 80] | 5.87 fold | 0.83 fold | 0.66 fold |  |  |  | 
CN(C)c1ccc(C(=N)c2ccc(N(C)C)cc2)cc1 [Chemical 183] |  |  |  | 0.72 fold | 0.70 fold | 4.00 fold | 
O=C(c1ccccc1)c1ccncc1 [Chemical 209] |  |  |  | 6.66 fold | 0.81 fold | 1.08 fold | 
CCOC(=O)N1C(=O)c2ccccc2C1=O [Chemical 237] | 4.77 fold | 0.62 fold | 0.06 fold |  |  |  | 
Cc1c(C(=O)O)c(O)cc2c1C(=O)c1c(O)c([C@@H]3O[C@H](CO)[C@@H](O)[C@H](O)[C@H]3O)c(O)c(O)c1C2=O [Chemical 240] |  |  |  | 0.63 fold | 0.80 fold | 5.26 fold | 
ClCCN1CCCCC1 [Chemical 254] | 4.09 fold | 0.98 fold | 0.90 fold |  |  |  | 
NC(=O)N1c2ccccc2CCc2ccccc21 [Chemical 299] | 0.53 fold | 0.47 fold | 5.46 fold |  |  |  | 
CCn1c(=O)[nH]c2ccccc21 [Chemical 322] | 0.60 fold | 1.12 fold | 11.18 fold |  |  |  | 
O=c1c(O)c(-c2ccc(O)c(O)c2)oc2cc(O)ccc12 [Chemical 325] | 0.14 fold | 1.0 fold | 5.42 fold |  |  |  | 
Nc1nc(N)nc(N)n1 [Chemical 364] | 3.67 fold | 1.07 fold | 1.18 fold |  |  |  | 
O=c1c(O)c(-c2ccc(O)cc2O)oc2cc(O)cc(O)c12 [Chemical 371] |  |  |  | 11.11 fold | 0.89 fold | 0.41 fold | 
O=C(O)c1ccc2c3c(ncnc13)-c1ccccc1C2=O [Chemical 378] | 4.12 fold | 0.59 fold | 0.26 fold |  |  |  | 
CCN(CC)CCCC(C)Nc1c2ccc(Cl)cc2nc2ccc(OC)cc12 (stereo not drawn) [Chemical 423] | 2.39 fold | 0.64 fold | 0.56 fold |  |  |  | 
O=c1ccc2[n+]([O-])c3ccc(O)cc3oc-2c1 [Chemical 427] | 3.14 fold | 0.71 fold | 0.43 fold |  |  |  | 

SMILES | GCSF fold induction relative to solvent control (G-CSF promoter; Table 2, 6 h incubation) | MMTV fold induction relative to solvent control (MMTV promoter; Table 2, 6 h incubation) | hGH fold induction relative to solvent control (hGH promoter; Table 2, 6 h incubation) | GCSF fold inhibition relative to solvent control (G-CSF promoter; [2]) | MMTV fold inhibition relative to solvent control (MMTV promoter; [2]) | hGH fold inhibition relative to solvent control (hGH promoter; [2]) | also measured
Cc1cc(C)nc(NS(=O)(=O)c2ccc(N)cc2)n1 [Chemical 443] |  |  |  | 0.60 fold | 0.79 fold | 4.76 fold | 
c1ccc(-c2cccc(-c3ccccn3)n2)nc1 [Chemical 453] | 0.79 fold |  | 0.58 fold |  |  |  | MMTV fold induction relative to solvent control (MMTV promoter; [1]): 13.30 fold
c1ncncn1 [Chemical 473] | > 3 fold | 0.87 fold | 0.50 fold |  |  |  | 
O=S(=O)(O)c1ccc2c(N=Nc3ccc(S(=O)(=O)O)c4ccccc34)c(O)c(S(=O)(=O)O)cc2c1 [Chemical 512] |  |  |  | 0.81 fold | 0.68 fold | 5.26 fold | 
CC(C=O)=CC=CC(C)=CC=CC=C(C)C=CC=C(C)C=CC1=C(C)CCCC1(C)C [Chemical 519] | 1.15 fold | 2.76 fold | 0.68 fold |  |  |  | 
O=P(O)(O)Oc1c[nH]c2ccc(Br)c(Cl)c12 [Chemical 541] |  |  |  | 0.90 fold | 0.86 fold | 6.25 fold | 
CON(C)C(=O)Nc1ccc(Cl)cc1 [Chemical 552] | 0.81 fold | 0.86 fold | 5.31 fold |  |  |  | 
CC1=CC(=C(c2cc(C)c(O)c(C(=O)O)c2)c2c(Cl)ccc(S(=O)(=O)O)c2Cl)C=C(C(=O)O)C1=O [Chemical 556] |  |  |  | 0.73 fold | 0.87 fold | 33.33 fold | 
CC(=O)NCCCC[C@H](NC(C)=O)C(=O)O [Chemical 577] |  |  |  | 0.64 fold | 0.68 fold | 4.00 fold | 
O=C(O[C@H](C(=O)O)[C@H](OC(=O)c1ccccc1)C(=O)O)c1ccccc1 [Chemical 578] |  |  |  | 0.65 fold | 0.91 fold | 4.00 fold | 
COc1ccc(CC(=O)O)cc1OC [Chemical 629] | 0.85 fold | 2.48 fold | 1.05 fold |  |  |  | 
O=C(O)CC1NC(=O)NC1=O (stereo not drawn) [Chemical 630] |  |  |  | 0.70 fold | 0.74 fold | 3.57 fold | 
O=C(O)c1[nH]c(=O)[nH]c(=O)c1I [Chemical 633] | 1.02 fold | 2.46 fold | 0.86 fold |  |  |  | 
Nc1c(O)c(S(=O)(=O)O)c(O)c2c1C(=O)c1ccccc1C2=O [Chemical 640] |  |  |  | 0.64 fold | 0.59 fold | 5.00 fold | 
O=C(c1ccc(O)c(O)c1)c1c(O)cc(O)cc1O [Chemical 660] |  |  |  | 10.0 fold | 1.04 fold | 0.34 fold | 
CN(C)c1ccc(C(=C2C=CC(=[N+](C)C)C=C2)c2ccc([N+](C)(C)C)cc2)cc1 [Chemical 670] | > 3 fold | 0.79 fold | 0.52 fold |  |  |  | 
C1CCNCC1 [Chemical 759] |  |  |  |  | 0.95 fold | 5.88 fold | GCSF fold inhibition relative to solvent control (G-CSF promoter): 0.64
C[C@]12C=CC(=O)C=C1CC[C@@H]1[C@@H]2[C@@H](O)C[C@@]2(C)[C@H]1CC[C@]2(O)C(=O)CO [Chemical 764] |  |  |  |  |  |  | MMTV fold inhibition relative to solvent control (MMTV promoter): 0.59; hGH fold inhibition relative to solvent control (hGH promoter): 4.54
CC(=O)OCC(=O)[C@@]1(O)CC[C@H]2[C@@H]3CCC4=CC(=O)C=C[C@]4(C)[C@H]3[C@@H](O)C[C@@]21C [Chemical 765] | 0.96 fold | 2.66 fold | 1.30 fold |  |  |  | 
CCOc1ccc2nc3cc(N)ccc3c(N)c2c1 [Chemical 790] | 0.01 fold | 0.58 fold | 5.94 fold |  |  |  | 
O=C1OC2(c3cc(I)c(O)c(I)c3Oc3c2cc(I)c(O)c3I)c2c(Cl)c(Cl)c(Cl)c(Cl)c21 [Chemical 792] | 0.94 fold | 1.21 fold | 5.31 fold |  |  |  | 
